pIC50: −log10 of the molar value.
Tests used:
[1] = tested on: Rev-dependent VLP production; experiment: Virus like particles (VLP) production in 293T cells, Gag(p24) ELISA; assay type: cell-based; details: 293T cells, 1, 0.1 and 0.01
Description: 293T Cells were transfected with a gag-pol-RRE construct. When Rev is present and/or functioning, Gag is produced, forms virus like particles (VLP), and VLP are secreted into the culture supernatant. VLP in the media are quantified using a quantitative Gag(p24) ELISA.

SIVmac251 virus = experiment: SIV inhibition in NHP PBMC, p27 antigen capture assay; assay type: cell-based; details: 0.0005 to 50 μM
Protocol: Non-human primate (NHP) cells were activated in IL-2 growth medium (GM) containing PHA-P at a concentration of 10 μg/ml for 24 hrs. The next day cells were washed and re-suspended in fresh IL-2 GM. Compound 9 was serially diluted at concentrations ranging from 0.0005 to 50 μM in a 96 well u-bottom plate containing IL-2 GM. Activated cells were then added to the wells of the plate. SIVmac251 virus, diluted 1:25 in IL-2 GM, was subsequently added to the appropriate wells containing the compounds of interest and the cells except for controls. This virus represents the same virus preparation utilized for infection of the animals. The plate was then incubated overnight and, after extensive washing the next day, the plate was then placed back in the incubator at 37° C., 5% CO2.
On day 4-5, of the assay, supernatants were harvested and a SIV p27 antigen capture assay was used to detect SIV p27 in the supernatant. […] The percentage of inhibition in each experiment is reported in FIGS. 3b and 3c for test 1 and 2, respectively.

HIV-1Ba-L = experiment: Anti-HIV efficacy evaluation in fresh human PBMCs (reverse transcriptase activity readout); assay type: cell-based
Protocol: Anti-HIV Efficacy Evaluation in Fresh Human PBMCs Assay Protocol:
Fresh human PBMCs, seronegative for HIV and HBV, are isolated from screened donors (Biological Specialty Corporation, Colmar, Pa.). Cells are pelleted/washed 2-3 times by low speed centrifugation and re-suspension in PBS to remove contaminating platelets. […] Banded PBMCs are gently aspirated from the resulting interface and subsequently washed 2× with PBS by low speed centrifugation. […] The cells are allowed to incubate for 48-72 hours at 37° C. […] IL-2 is included in the culture medium to maintain the cell division initiated by the PHA mitogenic stimulation. PBMCs are maintained in this medium at a concentration of 1-2×10^6 cells/mL with biweekly medium changes until used in the assay protocol. Cells are kept in culture for a maximum of two weeks before being deemed too old for use in assays and discarded. MDMs are depleted from the culture as the result of adherence to the tissue culture flask.
For the standard PBMC assay, PHA stimulated cells from at least two normal donors are pooled (mixed together), diluted in fresh medium to a final concentration of 1×10^6 cells/mL, and plated in the interior wells of a 96 well round bottom microplate at 50 uL/well (5×10^4 cells/well) in a standard format developed by the Infectious Disease Research department of Southern Research Institute. Pooling (mixing) of mononuclear cells from more than one donor is used to minimize the variability observed between individual donors, which results from quantitative and qualitative differences in HIV infection and overall response to the PHA and IL-2 of primary lymphocyte populations. Each plate contains virus/cell control wells (cells plus virus), experimental wells (drug plus cells plus virus) and compound control wells (drug plus media without cells, necessary for MTS monitoring of cytotoxicity). […] Therefore, infected wells are used in the assessment of both antiviral activity and cytotoxicity. Test drug dilutions are prepared at a 2× concentration in microtiter tubes and 100 μL of each concentration (nine total concentrations) are placed in appropriate wells using the standard format. 50 μL of a predetermined dilution of virus stock is placed in each test well (final MOI˜=0.1). The PBMC cultures are maintained for seven days following infection at 37° C., 5% CO2. After this period, cell-free supernatant samples are collected for analysis of reverse transcriptase activity and/or p24 antigen content. Following removal of supernatant samples, compound cytotoxicity is measured by addition of MTS to the plates for determination of cell viability. Wells are also examined microscopically and any abnormalities are noted.
Reverse Transcriptase Activity Assay Protocol:
Tritiated thymidine triphosphate (^3H-TTP, 80 Ci/mmol, NEN) is received in 1:1 dH2O:Ethanol at 1 mCi/mL. Poly rA:oligo dT template:primer (GE Healthcare) is prepared as a stock solution by combining 150 μL poly rA (20 mg/mL) with 0.5 mL oligo dT (20 units/mL) and 5.35 mL sterile dH2O followed by aliquoting (1.0 mL) and storage at −20° C. The RT reaction buffer is prepared fresh on a daily basis and consists of 125 μL 1.0 M EGTA, 125 μL dH2O, 125 μL 20% Triton X100, 50 μL 1.0 M Tris (pH 7.4), 50 μL 1.0 M DTT, and 40 μL 1.0 M MgCl2. The final reaction mixture is prepared by combining 1 part ^3H-TTP, 4 parts dH2O, 2.5 parts poly rA:oligo dT stock and 2.5 parts reaction buffer. Ten microliters of this reaction mixture is placed in a round bottom microtiter plate and 15 μL of virus containing supernatant is added and mixed. The plate is incubated at 37° C. for 60 minutes. Following incubation, the reaction volume is spotted onto DE81 filter-mats (Wallac), washed 5 times for 5 minutes each in a 5% sodium phosphate buffer or 2×SSC (Life Technologies).

[2] = tested on: 2LTR non-integrated circular form of the HIV genome; experiment: HIV integration in 2LTR assay (real-time PCR); assay type: cell-based, HIV-1

## CC1(C)CC(=O)c2c(C(F)(F)F)nn(-c3ccc(C(N)=O)c(N[C@H]4CC[C@H](O)CC4)c3)c2C1 [Compound 9, 4-(6,6-Dimethyl-4-oxo-3-trifluoromethyl-4,5,6,7-tetrahydro-indazol-1-yl)-2-(trans-4-hydroxy-cyclohexylamino)-benzamide]
[1]
  Inhibition of Rev-dependent VLP production: does not appear to robustly inhibit
SIVmac251 virus
  Amount of p27 in the supernatant of the cultures: dose-dependent reduction
HIV-1Ba-L; HIV-1Ba-L in PBMCs
  IC 95% (95% inhibition of virus replication): 11 nM
HIV-1Ba-L; HIV-1Ba-L in PBMCs, 50%
  Selectivity Index TI (TC50/IC50): 1.5
HIV-1Ba-L; HIV-1Ba-L in PBMCs, TC90/IC90
  Selectivity index (TI) 90%: >22.1
HIV-1Ba-L; HIV-1Ba-L in PBMCs, TC95/IC95
  Selectivity index (TI) 95%: >18.2
HIV-1Ba-L; Human immunodeficiency virus 1, PBMC, 168 h, read-out: Antiviral Activity IC50 (50% inhibition of virus replication), HIV-1Ba-L in PBMCs, seven days
  pIC50: 7.70
HIV-1Ba-L; Human immunodeficiency virus 1, PBMC, read-out: IC 90% (90% inhibition of virus replication)
  IC90: 90 nM
[2]; 10 nM, both time points
  Expression level of 2LTR: expression levels similar to HIV Only
[2]; 100 nM
  Expression level of 2LTR: highest expression levels of 2LTR over all other samples
[2]; 1 μM
  Expression level of 2LTR: highest expression levels of 2LTR over all other samples

From patent US20160143884A1, “USE OF TETRAHYDROINDAZOLYLBENZAMIDE AND TETRAHYDROINDOLYLBENZAMIDE DERIVATIVES FOR THE TREATMENT OF HUMAN IMMUNODEFICIENCY VIRUS (HIV) AND ACQUIRED IMMUNE DEFICIENCY SYNDROME (AIDS)” (Esanex, Inc., priority 2014, published 2016)
